Measured values from patent publication US20030092757A1, “Favorable modulation of health-related quality of life and health-related quality-adjusted time-to-progression of disease in patients with prostate cancer” (priority 2001, published 2003).

Assays:
[1] = tested on: patients having hormone refractory prostate cancer (HRPCa); experiment: Area under the Curve (AUC) analysis of health-related QoL domain scores, one year follow-up assumed; format: in vivo, human
Source text: The Kaplan-Meier product limit method may provide biased results if study data are obtained under certain conditions such as staggered entry of subjects into the study and/or incomplete follow-up (Biometrics. 1989; 5:781-795). Thus, a second analysis was implemented to verify that the conclusions derived from the Kaplan-Meier method would remain robust to the length of follow-up. The assumption was that all patients were followed for one year. Patients who discontinued from the study prior to one year of observation had their last observation for all health-related QoL domains carried forward through the remainder of the year. Similarly, patients who had not completed one year of observation had their health-related QoL data carried forward through one year. If the patient experienced a clinical event within the one year period, the last observation was not carried forward. The Area under the Curve (AUC) value for each domain was computed by multiplying the health-related QoL domain score by the respective duration of that score. Finally, AUC values were aggregated across all subjects within each respective treatment group (atrasentan (10 mg), atrasentan (2.5 mg), and placebo). Aggregated AUC values for each domain were compared for differences between treatment groups using a t-test.

[2] = tested on: patients having hormone refractory prostate cancer (HRPCa); experiment: Time to disease or PSA progression across treatment groups; format: in vivo, human; conditions: intent-to-treat population
Method: Patients received treatment with 10 mg (N=89) or 2.5 mg (N=95) of atrasentan or placebo (N=104) until experiencing a clinical event indicative of disease progression such as palliative opiate treatment of new bone or visceral pain, palliative radiation treatment of new bone pain, or new tumor growth symptoms requiring intervention or treatment with chemotherapy.

CCCCN(CCCC)C(=O)CN1C[C@H](c2ccc3c(c2)OCO3)[C@@H](C(=O)O)[C@@H]1c1ccc(OC)cc1 [atrasentan, (2R,3R,4S)-2-(4-methoxyphenyl)-4-(1,3-benzodioxol-5-yl)-1-(((N,N-dibutylamino)carbonyl)methyl)pyrrolidine-3-carboxylic acid]
AUC results ([1]; 2.5 mg, except for dyspnea, social/family, functional well-being, and FACT-P domain scores): significantly improved | AUC analysis, responses in the 10 mg and 2.5 mg treatment groups ([1]; 10 mg vs 2.5 mg): not statistically differentiable | AUC analysis, atrasentan treatment vs placebo groups ([1]; Intent to Treat population): no statistical differences | AUC analysis vs placebo ([1]; per-protocol population, every health-related QoL domain score): strong trends in favor | AUC for the health-related QoL domain scores ([1]; physical functioning, social functioning, and pain, p<0.05): significantly longer | differences in either the time to disease or PSA progression across treatment groups [2]: no statistically significant differences
